Assay [1] has as its system M. arginini G-230. Nature of the assay: Anti-mycoplasmal activity (MIC, MMC), liquid dilution method. As to conditions: Mycoplasmopsis arginini, liquid dilution, M. arginini G-230; for MBC: G230, 120 h, read-out: MMC; for MIC: G230, read-out: MIC. It is filed as cell-based, Mycoplasma arginini. The protocol: The minimum growth inhibitory concentration (MIC, μg/ml) and minimum mycoplasmacidal concentration (MMC, μg/ml) of test chemicals were measured by the liquid dilution method. The method of measuring MIC in this example differs from that used in Test Example 1.
A 1,000 μg/ml aqueous solution of a test chemical was prepared, and diluted to 5 times with a preculture medium. The dilution (200 μg/ml) was serially diluted twofold with the same medium in a 8-well reservoir. Fifty microliters of each diluted solution was distributed in the wells of a microplate. A well to which no test chemical was added was used as a control.
A mycoplasma suspension for inoculation prepared as in Test Example 1 was pipetted in an amount of 50 microliters to each of the wells. The microplates were sealed by a plate seal, shaken by a micromixer, and cultivated at 37° C. for 5 days. In the control to which no test chemical was added, color change of the medium by the growth of mycoplasma was observed after two days from the start of the cultivation. At this time, 3 microliters of the liquid culture was inoculated in drug-free Chanock agar medium by using a Cathra-replicator. The liquid culture and the agar medium were further cultivated at 37° C. for 3 days (anaerobically in the case of M. orale, and aerobically in the case of A. laidlawii and M. arginini). MIC and MMC were determined from the results of observation on the 5th day. MIC was defined as the lowest concentration of the test chemical at which growth of mycoplasma in the drug-containing liquid medium was not noted, and MMC, as that in the drug-free agar medium.

The test system of the next assay is M. orale CH19299. Nature of the assay: Anti-mycoplasmal activity (MIC), agar-dilution method. It is filed as cell-based, Mycoplasma orale. Conditions: Metamycoplasma orale; agar dilution; M. orale CH19299; read-out: MIC. The protocol: (§1) The minimum growth inhibitory concentrations (MIC; μg/ml) of the test chemicals were measured by the agar-dilution method.
(§2) (1) Preparation of a mycoplasma suspension for inoculation
(§3) A stored frozen suspension of mycoplasma (0.2 to 0.3 ml) was inoculated in 2 to 3 ml of a preculture medium to be described later. It was serially diluted tenfold until the dilution ratio reached 10,000 times. These diluted solutions were cultivated at 37° C. for 2 to 7 days. A culture having the highest dilution ratio was selected from those cultures in which a color change of the media was noted as a result of mycoplasma growth. It was diluted to 100 times with the preculture medium to prepare a mycoplasma suspension for inoculation.
(§4) The following preculture media were used.
(§5) For other mycoplasma species, Chanock liquid medium (pH 6.8) containing 0.2% arginine was used.
(§6) (2) Preparation of agar plates containing the test chemicals
(§7) A 1,000 μg/ml aqueous solution of each test chemical was prepared (a difficultly-soluble chemical was dissolved by adding an equimolar amount of sodium hydroxide; the same applies hereinafter). The solution was used as a base solution and its twofold serial dilutions were prepared. The diluted solutions were pipetted on plastic petri dishes each in an amount of 1 ml. The Chanock agar medium (for Mycoplasma hyorhinis, 0.5% mucin was further added) described at page 9 of the above cited "Procedures for Isolation and Identification of Human, Animal and Plant Mycoplasmas" was heated and kept at 55° C. and put in an amount of 9 ml in each of the petri dishes containing the test chemicals and fully mixed with the test chemicals to prepare agar plates containing the test chemicals.
(§8) The mycoplasma suspension for inoculation prepared by the procedure described in section (1) was inoculated in an amount of about 3 microliters on each of the chemical-containing agar plates by means of a Cathra-replicator (3 mm pin). The plates on which Mycoplasma pneumoniae, Mycoplasma arginini, and Acholeplasma laidlawii and Mycoplasma hyorhinis were inoculated were tightly packed in a plastic bag together with the plasic petri dishes including water-immersed absorbent cotton. Mycoplasma pneumoniae was aerobically cultivated at 37° C. under highly humid conditions for 7 days; and Mycoplasma arginini and Acholeplasma laidlawii, for 2 days. The other mycoplasma species were cultivated anaerobically for 2 days by using a GasPak anaerobic system (BBL). After the cultivation, growth of mycoplasma were observed under an OLYMPUS microscope (20-100 X). The lowest concentration of the test chemical at which no growth of mycoplasma was noted is defined as MIC.

The next assay deals with M. salivarium PG20. Described as above. It counts as cell-based, Mycoplasma salivarium. Conditions: Metamycoplasma salivarium; agar dilution; M. salivarium PG20; read-out: MIC. How it is done:
as §1, §2, §3, §4, §5, §6, §7, §8
A general note: Agar dilution tests growth on a series of plates holding different concentrations.

A further assay has as its system M. hyorhinis BST7. The description is as above. It counts as cell-based, Mycoplasma hyorhinis. Conditions: Mesomycoplasma hyorhinis; agar dilution; M. hyorhinis BST7; read-out: MIC. How it is done: as §1, §2, §3, §4
For Mycoplasma hyorhinis, a liquid medium (pH 7.8) for isolation of Mycoplasma hyorhinis [Journal of the Japan Veterinary Medical Association,32, 34-38 (1979)] was used.
as §6, §7, §8

Assay [2] deals with M. arginini G-230. Nature of the assay: Activity of eliminating artificially contaminated mycoplasma from L-929 cells. It counts as cell-based, Mycoplasma arginini. How it is done: Animal cells, experimentally contaminated by mycoplasma, were cultivated for 4 days in a medium containing the test chemical and then sub-cultivated in a medium to which the test chemical was not added in order to determine whether the mycoplasma re-grew (re-contamination).
(1) Preparation of mycoplasma-contaminated cells
The mycoplasmas described in Table 3 were each pre-cultivated as in Test Example 1, (1). Two milliliters of the cultures were centifuged at 1,500×g for 30 minutes to separate the mycoplasmas. The isolated mycoplasmas were suspended in 2 ml of 10%-FBS-MEM medium (Eagle's minimum essential medium supplemented with 10% fetal bovine serum and 100 U/ml of penicillin G).
Separately, mouse fibroblast cells L-929 was suspended in 10%-FBS-MEM medium so that their density became 2.5×10^4 /ml. Four milliliters of the suspension was put in a petri dish (diameter 6 cm) for tissue culture including two circular cover glasses (diameter 1.8 cm), and then 1 ml of the mycoplasma suspension described above was added. The mixture was incubated at 37° C. in 5% CO2 humidified atmosphere for 3 days, and then sub-cultivated twice in order to obtain mycoplasma-contaminated cells. Mycoplasma-contamination was confirmed by the highly specific DNA-fluorochromic staining method (the above cited "Procedures for Isolation and identification of Human, Animal and Plant Mycoplasmas", pages 95-97).
(2) Experiment of eliminating mycoplasma contamination
Mycoplasma-contaminated L-929 cells were cultivated as described in the preceding section. A 1,000 μg/ml aqueous solution of a test chemical was prepared, and diluted to predetermined concentrations with Eagle's minimum essential medium. The diluted solutions were added to the culture medium. Two petri dishes were used for each concentration of the test chemical, and two circular cover glasses were put in one of them for examination of mycoplasma. No cover glass was put in the other petri dish, and it was used for subcultivation. Cultivation in the test chemical-containing medium was carried out for 4 days, and thereafter, the cultivation was continued for 3 weeks in a drug-free medium. Medium replacement was effected every 3 to 4 days, and subcultivation was carried out once a week. Examination for mycoplasma contamination was performed on the 4th and 7th days, and thereafter every week. The mycoplasmas were detected by the highly specific DNA-fluorochromic staining method.

As usually defined, the MIC is the smallest concentration in the dilution series that meets the test's criterion for growth inhibition.

Each structure is given as a SMILES string. Converted amounts (≈) assume the structure as drawn.

Consider `CC1CN(c2c(F)c(N)c3c(=O)c(C(=O)O)cn(C4CC4)c3c2F)CCN1` (stereo not shown) [Compound 1], for which the MBC in the assay with M. arginini G-230 [1] turned out to be 0.1 µg/mL (≈ 0.264 µM). The MIC in the assay with M. arginini G-230 [1] was 0.1 µg/mL (≈ 0.264 µM); in the assay with M. orale CH19299, 0.2 µg/mL (≈ 0.529 µM); in the assay with M. salivarium PG20 it was 0.2 µg/mL (≈ 0.529 µM); with M. hyorhinis BST7, 0.2 µg/mL (≈ 0.529 µM). The mycoplasma elimination result is given as “+” in the assay with M. arginini G-230 [2] (0.2 μg/ml, day 0); “+” in the assay on M. arginini G-230 [2] (0.2 μg/ml, day 4); “+” in the assay on M. arginini G-230 [2] (0.2 μg/ml, day 7); “+” in the assay on M. arginini G-230 [2] (0.2 μg/ml, day 14); “+” in the assay with M. arginini G-230 [2] (0.2 μg/ml, day 28); “+” in the assay on M. arginini G-230 [2] (0.39 μg/ml, day 0). The mycoplasma elimination result with M. arginini G-230 [2] (0.39 μg/ml, day 4) is recorded as “-”; in the assay with M. arginini G-230 [2] (0.39 μg/ml, day 7), “-”; in the assay on M. arginini G-230 [2] (0.39 μg/ml, day 14), “-”; in the assay on M. arginini G-230 [2] (0.39 μg/ml, day 28), “-”.
Turning to `CN(C)c1ccc(O)c2c1C[C@H]1C[C@H]3[C@H](N(C)C)C(O)=C(C(N)=O)C(=O)[C@@]3(O)C(O)=C1C2=O` [Compound 3, minocycline], the MBC in the assay on M. arginini G-230 [1] was more than 100 µg/mL. The MIC was 0.39 µg/mL (≈ 0.852 µM) with M. arginini G-230 [1], 0.1 µg/mL (≈ 0.219 µM) in the assay with M. orale CH19299, 0.1 µg/mL (≈ 0.219 µM) with M. salivarium PG20 and 0.1 µg/mL (≈ 0.219 µM) in the assay on M. hyorhinis BST7. The mycoplasma elimination entry in the assay with M. arginini G-230 [2] (12.5 μg/ml, day 0) is given as “+”; with M. arginini G-230 [2] (12.5 μg/ml, day 4), “-”; with M. arginini G-230 [2] (12.5 μg/ml, day 7), “-”; in the assay with M. arginini G-230 [2] (12.5 μg/ml, day 14), “+”; with M. arginini G-230 [2] (12.5 μg/ml, day 28), “+”.
Take `NCC1CN(c2c(F)c(N)c3c(=O)c(C(=O)O)cn(C4CC4)c3c2F)CCO1` (stereo not shown) [Compound A, 5-amino-7-(2-aminomethylmorpholino)-1-cyclopropyl-6,8-difluoro-1,4-dihydro-4-oxoquinoline-3-carboxylic acid]: in the assay with M. arginini G-230 [1], the MBC turned out to be 0.05 µg/mL (≈ 0.127 µM). Also, the MIC with M. arginini G-230 [1] came out at 0.05 µg/mL (≈ 0.127 µM); with M. orale CH19299, 0.05 µg/mL (≈ 0.127 µM); in the assay with M. salivarium PG20, 0.1 µg/mL (≈ 0.254 µM); in the assay on M. hyorhinis BST7, 0.05 µg/mL (≈ 0.127 µM). The mycoplasma elimination result is given as “+” with M. arginini G-230 [2] (0.1 μg/ml, day 0); “+” in the assay with M. arginini G-230 [2] (0.1 μg/ml, day 4); “+” with M. arginini G-230 [2] (0.1 μg/ml, day 7); “+” in the assay with M. arginini G-230 [2] (0.1 μg/ml, day 14); “+” in the assay on M. arginini G-230 [2] (0.1 μg/ml, day 28); “+” in the assay with M. arginini G-230 [2] (0.2 μg/ml, day 0). The mycoplasma elimination result is recorded as “-” in the assay with M. arginini G-230 [2] (0.2 μg/ml, day 4); “-” in the assay with M. arginini G-230 [2] (0.2 μg/ml, day 7); “-” in the assay on M. arginini G-230 [2] (0.2 μg/ml, day 14); “-” in the assay on M. arginini G-230 [2] (0.2 μg/ml, day 28).

The values above are taken from patent publication US5051419A, “Prevention or elimination of mycoplasma contamination of animal or plant cell cultures” (Dainippon Pharmaceutical Co., Ltd., priority 1988, dated 1991).
